Measured values reported in patent EP0277611A2, “Alkyl-substituted N-benzopyranyl lactames, process for their preparation, their use and pharmaceutical preparations on the basis of these compounds” (HOECHST AKTIENGESELLSCHAFT, priority 1987, dated 1988).
Read-outs that look alike come from different tables or passages of the source.

Key:
arteriellen Blutdruck = test: Effect on arterial blood pressure in anaesthetised normotensive rats (ED25 from minima of blood pressure curves); assay type: in vivo, männlichen Sprague-Dawley Ratten; conditions: Rattus norvegicus, anaesthetised (Nembutal 70 mg/kg i.p.) normotensive rats, from minimum of blood pressure curve, read-out: ED₂₅
Experimental: Der Einfluß der Verbindungen auf den arteriellen Blutdruck wurde an narkotisierten normotensiven männlichen Sprague-Dawley Ratten untersucht. Als Betäubungsmittel wurde Nembutal® in einer Dosis von 70 mg/kg i.p. verwendet. Die Blutdruckmessung erfolgte mittels Katheter in der Arteria carotis mit einem Druckwandler (Statham P 23 Db). Für die i.v. Applikation wurden die Substanzen in Dimethylsulfoxid gelöst und mit Wasser verdünnt. Die Konzentration der Stammlösung war 1mg/ml, wobei die Lösung 15 % Dimethylsulfoxid enthielt. Anteile dieser Stammlösung wurden für die Injektion jeweils frisch mit Wasser verdünnt.
Es kamen Konzentrationen von 50 (100), 30 (30) und 10 (10) µg/ml für die i.v. Applikation, 100 (100), 50 (60) und 30 (30) µg/ml für die i.d. Applikation zur Anwendung. Die angegebenen Zahlen beziehen sich dabei auf das Experiment a), die in Klammern angegebenen Zahlen auf Experiment b).
Die Blutdruckmessung wurde nach 0; 0,2; 0,4; 1; 2; 3; 10; 15 und 30 min. nach der i.v. Applikation sowie nach 0; 1; 3; 5; 10; 15; 20; 30; 40; 50 und 60 min. nach der i.d. Applikation vorgenommen. Die ED₂₅ Werte wurden aus dem Minima der jeweiligen Blutdruckkurven bestimmt. • a) (±)-(3R*, 4S*, 5ʹS*)-6-Cyano-3,4-dihydro-2,2-dimethyl-4-(2ʹ-oxo-5ʹ-methyl-1ʹ-pyrrolidinyl)-2H-benzo[b]pyran-3-ol (Verbindung aus Beispiel 1): ED₂₅= 19 µg/kg (i.v.) ED₂₅=42 µg/kg (i.d.) • b) (±)-6-Cyano-3,4-dihydro-2,2-dimethyl-trans-4-(2-oxo-1-pyrrolidinyl-2H-benzo[b]pyran-3-ol (Beispiel aus J. Med. Chem. 1986, 29, 2194-2201) ED₂₅= 42 µg/kg (i.v.) ED₂₅= 82 µg/kg (i.d.)

Meerschweinchen-Ureteren = test: Influence on KCl-induced rhythmic contractions of isolated guinea pig ureters in vitro; assay type: cell-based; conditions: 10⁻⁷ mol/l test substance, KCl 4 x 10⁻² mol/l, mean ± SEM; for inhibition at 0.1 µM: Cavia porcellus
Source text: Beeinflussung der KCl-induzierten rhythmischen Kontraktionen an Meerschweinchen-Ureteren in vitro
Männliche Meerschweinchen wurden durch Nackenschlag und Entbluten aus den Carotiden getötet. Die beiden Ureteren wurden sofort entnommen, wobei der Bereich nahe dem Nierenkelch wegen der dort vorhandenen Schrittmacher-Aktivität gemieden wurde. 2 cm lange Stücke wurden zunächst in einer Petrischale, die Tyrode-Lösung enthielt, von Bindegewebe befreit und dann jeweils mit einer Vorspannung von 4,9 mN (=0,5 p) in ein 25 ml-Organbad (Fa. Rhema Labortechnik, Hofheim) gehängt. Das Organbad enthielt eine auf 37° gehaltene und mit Carbogen (95 % O₂, 5 % CO₂) durchperlte Tyrodelösung mit folgender Zusammensetzung (mmol/l): NaCl 137, KCl 2,68, MgSO₄ 1,05, CaCl₂ 1,8, NaH₂PO₄ 0,41, NaHCO₃ 11,9, Glucose 5,55. Die Kontraktionen wurden isometrisch gemessen unter Verwendung von Gould/Statham UC2 Gebern. Nach einer Äquiilibrierungszeit von mindestens 15 Minuten wurde KCl in das Organbad zugegeben, wobei eine Konzentration von 4 x 10⁻² mol/l erreicht wurde. Der Agonist wurde 2 Minuten im Bad belassen, wobei phasische Kontraktionen auftraten, ohne einen nennenswerten Anstieg der Grundspannung zu bewirken.
Danach wurde 1 Minute ausgespült, woraufhin die rhythmischen Kontraktionen sofort aufhörten. Nach einem zweiten Durchgang von Agonistgabe und Spülvorgang wurde die Prüfsubstanz (Benzopyran-Derivat) in das Organbad zugegeben (in Form einer Lösung in 0,1 ml Ethanol, die Endkonzentrationen betrugen in allen Fällen 10⁻⁷ mol/l) und eine Einwirkungszeit von einer Minute abgewartet, bevor KCl zugesetzt wurde. An den folgenden Spülvorgang schlossen sich zwei abschließende Agonistgabe/Spülgänge an. Von den jeweils zweiminütigen Perioden unter KCl-Einwirkung wurden folgende Parameter bestimmt: 1. mittlere Kontraktionskraft, 2. Frequenz der Kontraktionen und 3. Produkt aus mittlerer Kontraktionskraft und Frequenz. Ausschlußkriterien waren mittlere Kontraktionskräfte unter 4 mN oder Frequenzen unter 2/min bei mehr als einer der vier Perioden, bei denen nur der Agonist KCl im Bad vorhanden war. Ausgewertet wurde die prozentuale Hemmung unter Prüfsubstanz im Vergleich zum gemittelten Wert aus den beiden Vorläufen.
Neben dem arithmetischen Mittelwert (x) wurde der Standardfehler des Mittelwerts (SEM) errechnet.

[1] = percent inhibition of product of mean contraction force and frequency, read-out: k·v [%]
[2] = percent inhibition vs mean of the two pre-runs, read-out: Frequenz v [%]
[3] = percent inhibition vs mean of the two pre-runs, read-out: mittlere Kontraktionskraft k [%]
[4] = percent inhibition vs mean of the two pre-runs, 0.1 µM

| Structure (SMILES) | ED25 (arteriellen Blutdruck; iv) | ED25 (arteriellen Blutdruck; i.d.) | inhibition at 0.1 µM (Meerschweinchen-Ureteren; [1]) | inhibition at 0.1 µM (Meerschweinchen-Ureteren; [2]) | inhibition at 0.1 µM (Meerschweinchen-Ureteren; [3]) | k·v [%] (Meerschweinchen-Ureteren; percent inhibition of product of mean contraction force and frequency, 0.1 µM) | Frequenz v [%] (Meerschweinchen-Ureteren; [4]) | mittlere Kontraktionskraft k [%] (Meerschweinchen-Ureteren; [4]) |
| --- | --- | --- | --- | --- | --- | --- | --- | --- |
| C[C@H]1CCC(=O)N1[C@H]1c2cc(C#N)ccc2OC(C)(C)[C@@H]1O (racemic) [(3R*, 4S*, 5ʹS*)-6-Cyano-3,4-dihydro-2,2-dimethyl-4-[2ʹ-oxo-5ʹ-methyl-1ʹ-pyrrolidinyl]-2H-benzo[b]pyran-3-ol] | 0.019 mg/kg | 0.042 mg/kg | – | – | – | – | – | – |
| C[C@@H]1CCC(=O)N1[C@H]1c2cc(C#N)ccc2OC(C)(C)[C@@H]1O [(-)-(3R, 4S, 5ʹR)-6-Cyano-3,4-dihydro-2,2-dimethyl-4-(2ʹ-oxo-5ʹ-methyl-1ʹ-pyrrolidinyl)-2H-benzo[b]pyran-3-ol] | – | – | 96 ± 2% | 89 ± 4% | 75 ± 8% | – | – | – |
| C[C@@H]1CCC(=O)N1[C@H]1c2cc(C#N)ccc2OC(C)(C)[C@@H]1O (racemic) [±)-(3R^*,4S^*,5'R^*)-6-Cyano-3,4-dihydro-2,2-dimethyl-4-(2'-] [(3R*, 4S*, 5ʹR*)-6-Cyano-3,4-dihydro-2,2-dimethyl-4-[2ʹ-oxo-5ʹ-methyl-1ʹ-pyrrolidinyl)-2H-benzo[b]pyran-3-ol] | – | – | – | – | – | 96 ± 1% | 86 ± 4% | 69 ± 11% |
| CC1(C)Oc2ccc(C#N)cc2C(N2CCCC2=O)C1O (racemic) [(±)-6-Cyano-3,4-dihydro-2,2-dimethyl-trans-4-(2-oxo-1-pyrrolidinyl-2H-benzo[b]pyran-3-ol, reference compound] | 0.042 mg/kg | 0.082 mg/kg | 61 ± 7% | 58 ± 5% | 8 ± 8% | – | – | – |
